Reference: patent US7348322B2, “Glucocorticoid receptor modulators as antiinflammatory agents” (Roche Palo Alto LLC, priority 2005, dated 2008)

Target: T1, Human recombinant purified glucocorticoid receptor (Homo sapiens, UniProt P04150)
T1 sequence (P04150 1-777): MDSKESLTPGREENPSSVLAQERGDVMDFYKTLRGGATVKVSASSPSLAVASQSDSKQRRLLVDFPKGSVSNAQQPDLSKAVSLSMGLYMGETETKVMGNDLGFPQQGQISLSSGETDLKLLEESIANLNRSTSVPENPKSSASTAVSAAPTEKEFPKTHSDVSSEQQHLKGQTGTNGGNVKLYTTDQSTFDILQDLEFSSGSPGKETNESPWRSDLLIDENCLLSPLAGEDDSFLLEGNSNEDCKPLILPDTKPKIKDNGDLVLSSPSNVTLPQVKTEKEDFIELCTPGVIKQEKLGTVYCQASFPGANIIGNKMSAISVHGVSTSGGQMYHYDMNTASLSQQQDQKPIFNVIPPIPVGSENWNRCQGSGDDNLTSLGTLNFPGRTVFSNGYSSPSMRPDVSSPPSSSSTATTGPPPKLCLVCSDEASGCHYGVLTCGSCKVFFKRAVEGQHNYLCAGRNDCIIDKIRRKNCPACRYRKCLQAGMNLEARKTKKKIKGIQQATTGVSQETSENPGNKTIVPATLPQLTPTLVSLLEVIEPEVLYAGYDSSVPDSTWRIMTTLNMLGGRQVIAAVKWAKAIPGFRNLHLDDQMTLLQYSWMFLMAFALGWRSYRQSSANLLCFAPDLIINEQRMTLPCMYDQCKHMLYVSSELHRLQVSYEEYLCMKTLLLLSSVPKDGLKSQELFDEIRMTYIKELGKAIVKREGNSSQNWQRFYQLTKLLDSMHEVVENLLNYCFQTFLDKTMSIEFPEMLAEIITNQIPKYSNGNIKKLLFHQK
Assay: Glucocorticoid receptor competitive binding assay (3H-dexamethasone)
Conditions: competition with 2 nM 3H-Dexamethasone, 1 nM GR, 4° C. overnight; read-out: Binding Affinity Ki
Method: The affinity of glucocorticoid receptor antagonists for the glucocorticoid receptor was determined in competitive binding assays by the ability of the antagonist to compete with tritiated dexamethasone.
All assay steps were performed on ice in 96-well plates. Binding buffer contained 10 mM potassium phosphate pH 7.4, 20 mM Na2Mo4, 100 μM EDTA, 2% DMSO, and 5 mM DTT. Human recombinant purified glucocorticoid receptor was used at 1 nM. Compounds tested had up to 2% DMSO final concentration. Non-specific binding condition was 1 μM dexamethasone. The radioligand used for the competition assay was 2 nM ^3H-Dexamethasone (83 Ci/mmol stock solution). Buffer, compounds or vehicles, GR, and radioligand were incubated at 4° C. overnight. Unifilter GF/B 96-well filter plates were treated with 0.5% PEI after incubation. Samples were transferred to filter plates by a cell harvester. Filter plates were washed five times with 50 mM Tris pH 7.5 and 5 mM EDTA wash buffer. Samples were dried at 65° C. for about 1 hr. Scintillation fluid was added to filter plates at 50 μL/ well and ^3H cpm were measured on the TopCount scintillation counter.

Row | SMILES | Ki
1 | ON=C(CNc1ccc(-c2cnco2)cc1)CC1(c2ccccc2C(F)(F)F)CCC1 (racemic) [Example 4, 1-(4-Oxazol-5-yl-phenylamino)-3-[1-(2-trifluoromethyl-phenyl)-cyclobutyl]-propan-2-one oxime] | 851 nM
2 | Cc1noc(=O)c2ccc(NCC(=O)CC3(c4ccccc4C(F)(F)F)CCC3)cc12 [Example 1, 4-Methyl-6-{2-oxo-3-[1-(2-trifluoromethyl-phenyl)-cyclobutyl]-propylamino}-benzo[d][1,2]oxazin-1-one] | 405 nM
3 | Cc1noc(=O)c2ccc(NC/C(CC3(c4ccccc4C(F)(F)F)CCC3)=N\O)cc12 [Example 2, 1-(4-Methyl-1-oxo-1H-benzo[d][1,2]oxazin-6-ylamino)-3-[1-(2-trifluoromethyl-phenyl)-cyclobutyl]propan-2-one oxime] | 89 nM
4 | O/N=C(\CNc1cccc(-c2cnco2)c1)CC1(c2ccccc2C(F)(F)F)CCC1 [Example 3, 1-(3-Oxazol-5-yl-phenylamino)-3-[1-(2-trifluoromethyl-phenyl)-cyclobutyl]-propan-2-one oxime] | 2100 nM

Second part, the compound after the results:

Row | Ki | SMILES
5 | 723 nM | O=C(CC1(c2ccccc2C(F)(F)F)CCC1)C(=O)Nc1ccc(-c2cnco2)cc1 [Example 5, N-(4-Oxazol-5-yl-phenyl)-2-oxo-3-[1-(2-trifluoromethyl-phenyl)-cyclobutyl]-propionamide]
6 | 2400 nM | O=C(CC1(c2ccccc2C(F)(F)F)CCC1)C(=O)Nc1cccc(-c2ccno2)c1 [Example 6, N-(3-Isoxazol-5-yl-phenyl)-2-oxo-3-[1-(2-trifluoromethyl-phenyl)-cyclobutyl]-propionamide]
